Assay results published in US20180051017A1, “AGENT FOR TREATMENT OF SCHIZOPHRENIA” (Sumitomo Dainippon Pharma Co., Ltd., priority 2002, published 2018).
Counter-ions that a name gives are not always drawn.

System: patients with schizophrenia in the acute exacerbation phase
Test: First stage phase II clinical trial, placebo-controlled double-blind: efficacy (BPRS, PANSS, CGI-S/I)
Type: in vivo, human
Description: According to the procedures as shown in Table 1 as described below, the placebo-controlled double blind experiment was done on 149 patients with schizophrenia in the acute exacerbation phase at 15 facilities in USA. The efficacy and safeness were studied when SM-13496 at a dose of 40 mg or 120 mg, or a placebo was orally administered once a day for 6 weeks after placebo washout.

O=C1[C@@H]2[C@@H]3CC[C@@H](C3)[C@@H]2C(=O)N1C[C@@H]1CCCC[C@H]1CN1CCN(c2nsc3ccccc23)CC1 [SM-13496, (1R,2S,3R,4S)-N-[(1R,2R)-2-[4-(1,2-benzoisothiazol-3-yl)-1-piperazinyl-methyl]-1-cyclohexylmethyl]-2,3-bicyclo[2.2.1]heptanedicarboximide hydrochloride]
Reductions in BPRS, CGI-I and CGI-S scores at end of trial compared to placebo (40 mg or 120 mg, 6 weeks after the administration): statistically significant | Responder (BPRS reduction 20% or more, or CGI-I 1 or 2), Number (40 mg orally once a day for 6 weeks, 47 subjects, p 0.002 vs placebo): 26 | BPRS Total Score, change from before administration at end of trial (LOCF), Average (SD) (40 mg orally once a day for 6 weeks, 47 subjects, p 0.014 vs placebo): −10.0 | PANSS Total Score, change from before administration at end of trial (LOCF), Average (SD) (40 mg orally once a day for 6 weeks, 47 subjects, p 0.063 vs placebo): −14.1 | CGI-I at end of trial, Average (SD) (40 mg orally once a day for 6 weeks, n = 47, p 0.013 vs placebo): 3.2 (1.56) | Ratio of responders compared to placebo (40 mg- or 120 mg-treated group): statistically significant difference | BPRS Total Score, change from before administration at end of trial (LOCF), Average (SD) (120 mg orally once a day for 6 weeks, 44 subjects, p 0.003 vs placebo): −11.3 (8.89) | Responder (BPRS reduction 20% or more, or CGI-I 1 or 2), Number (120 mg orally once a day for 6 weeks, 44 subjects, p 0.007 vs placebo): 22 | PANSS Total Score, change from before administration at end of trial (LOCF), Average (SD) (120 mg orally once a day for 6 weeks, 44 subjects, p 0.010 vs placebo): −17.4 (15.70) | CGI-I at end of trial, Average (SD) (120 mg orally once a day for 6 weeks, n = 42, p 0.005 vs placebo): 3.0 (1.29) | Reduction in PANSS score at end of experiment compared to placebo (120 mg, 6 weeks): statistically significant | BPRS total score (LOCF) change with time compared to placebo (FIG. 1) (SM-13496-treated groups, at 2 weeks or later, p<0.05): statistically significantly reduced
